In patent US7365202B2, “Polymorphs of an androgen receptor modulator” (Merck & Co., Inc., priority 2005, dated 2008):

Assays:
[1] = Source text: The weight increase was based on the initial total sample weight at 25% RH.
[2] = tested on: human AR in MDA-MB-453 cells; test: Trans-Activation Modulation of Androgen Receptor (TAMAR), MMTV-LUC reporter; type: cell-based
Procedure: Trans-Activation Modulation of Androgen Receptor (TAMAR)
This assay assesses the ability of test compounds to control transcription from the MMTV-LUC reporter gene in MDA-MB-453 cells, a human breast cancer cell line that naturally expresses the human AR. The assay measures induction of a modified MMTV LTR/promoter linked to the LUC reporter gene.
20,000 to 30,000 cells/well are plated in a white, clear-bottom 96-well plate in “Exponential Growth Medium” which consists of phenol red-free RPMI 1640 containing 10%FBS, 4 mM L-glutamine, 20 mM HEPES, 10 ug/mL human insulin, and 20 ug/mL gentamicin. Incubator conditions are 37° C. and 5% CO2. The transfection is done in batch mode. The cells are trypsinized and counted to the right cell number in the proper amount of fresh media, and then gently mixed with the Fugene/DNA cocktail mix and plated onto the 96-well plate. All the wells receive 200 TI of medium+lipid/DNA complex and are then incubated at 37° C. overnight. The transfection cocktail consists of serum-free Optimem, Fugene6 reagent and DNA. The manufacturer's (Roche Biochemical) protocol for cocktail setup is followed. The lipid (Tl) to DNA (Tg) ratio is approximately 3:2 and the incubation time is 20 minutes at room temperature. Sixteen to 24 hrs after transfection, the cells are treated with test compounds such that the final DMSO (vehicle) concentration is <3%. […]

[3] = target: T1, rhAR NTD/CTD interaction in CV-1 monkey kidney cells (Macaca mulatta, UniProt Q6QT55); test: Mammalian two-hybrid assay for ligand-induced interaction of N-terminus and C-terminus domains of the androgen receptor (agonist mode: VIRCON); type: cell-based; settings: at 10 micromolar; read-out: agonist activity (Emax relative to the activity obtained with 3 nM R1881)
T1 construct: pCBB1 (Gal4DBD-rhARLBD fusion construct expressed under the SV40 early promoter); expressed in transfected cells; host or cells: CV-1 monkey kidney cells
T1 sequence (Q6QT55 644-895): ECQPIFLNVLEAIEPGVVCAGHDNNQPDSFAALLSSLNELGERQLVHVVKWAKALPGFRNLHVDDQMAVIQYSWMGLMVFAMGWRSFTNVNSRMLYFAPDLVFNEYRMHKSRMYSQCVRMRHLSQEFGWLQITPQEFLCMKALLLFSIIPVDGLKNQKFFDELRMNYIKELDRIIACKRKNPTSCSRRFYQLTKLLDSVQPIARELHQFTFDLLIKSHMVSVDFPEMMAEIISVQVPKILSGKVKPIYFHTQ
Source text: Mammalian Two-Hybrid Assay for the Ligand-Induced Interaction of N-Terminus and C-Terminus Domains of the Androgen Receptor (Agonist Mode: VIRCON)
This assay assesses the ability of AR agonists to induce the interaction between the N-terminal domain (NTD) and C-terminal domain (CTD) of rhAR that reflects the in vivo virilizing potential mediated by activated androgen receptors. The interaction of NTD and CTD of rhAR is quantified as ligand induced association between a Gal4DBD-rhARCTD fusion protein and a VP16-rhARNTD fusion protein as a mammalian two-hybrid assay in CV-1 monkey kidney cells.
The day before transfection, CV-1 cells are trypsinized and counted, and then plated at 20,000 cells/well in 96-well plates or larger plates (scaled up accordingly) in DMEM+10% FCS. […]
For each well, 0.4 μL LIPOFECTAMINE Reagent (GIBCO-BRL) is diluted into 4.6 μL OPTI-MEM in a second tube and mixed to form the diluted LIPOFECTAMINE Reagent. […] Forty eight hours later, luciferase activity is measured using LUC-Screen system (TROPIX) following the manufacturer's protocol. […] After incubation for 40 minutes at room temperature, luminescence is directly measured with 2-5 second integration. […]

Structure (SMILES) | loss of total weight ([1]; 25° C., relative humidity decreases from 95% to 5% RH) | moisture uptake (weight increase based on initial total sample weight at 25% RH) ([1]; from about 25% to about 95% RH at 25° C.) | partial agonist activity (Emax relative to the activity obtained with 100 nM R1881) [2] | Emax at 10 µM [3]
CN1C(=O)C(F)=C[C@]2(C)[C@H]3CC[C@]4(C)[C@@H](C(=O)NCc5nc6ncccc6[nH]5)CC[C@H]4[C@@H]3CC[C@@H]12 [Form B, N-(3H-imidazo[4,5-b]pyridin-2-ylmethyl)-2-fluoro-4-methyl-3-oxo-4-aza-5α-androst-1-en-17β-carboxamide] | about 8% | about 7% | – | –
CN1C(=O)C(F)=C[C@]2(C)C3CC[C@]4(C)[C@@H](C(=O)NCc5nc6cccnc6[nH]5)CC[C@H]4C3CC[C@@H]12 (stereo partly drawn) [compound of formula I, N-(3H-imidazo[4,5-b]pyridin-2-ylmethyl)-2-fluoro-4-methyl-3-oxo-4-aza-5-alpha-androst-1-en-17-beta-carboxamide] | – | – | greater than 10% | < 50%
